Consider 19 compounds from US20230310428A1, “EGFR INHIBITOR AND PREPARATION METHOD AND USE THEREOF” (HONGYUN BIOTECH CO., LTD., priority 2020, published 2023).

Experiment in all cases: Growth inhibitory activity of compounds on BaF3 cell lines stably transfected with kinase (MTS, 48 h)
Common to all, as to format: cell-based

The target of test [1] is T1, various mutants of kinase EGFR (BaF3 cell lines stably transfected with kinase) (Homo sapiens, UniProt P00533).
T1 construct: other: BaF3 cells stably transfected with EGFR Δ19Del; MTS, 48 h; other: BaF3 cell line stably transfected with EGFR Δ19Del
The conditions noted are these: BaF3 cells stably transfected with EGFR Δ19Del, read-out: IC50, growth inhibition, Δ19Del. On the procedure: (§1) The activity of compounds against various mutants of kinase EGFR was evaluated by their effect of inhibiting growth of BaF3 cell lines stably transfected with kinase. The specific test method was given as follows:
(§2) 1) Culture medium: DMEM (Dulbecco’s modified eagle medium) or RPMI 1640 (containing 10% fetal bovine serum, 100 µg/mL ampicillin, 100 µg/mL streptomycin).
(§3) 2) Reagent: MTS reaction solution (containing 2 mg/mL of MTS [3-(4,5-dimethylthiazol-2-yl)-5-(3-carboxymethoxyphenyl)-2-(4-sulfophenyl)-2H-tetrazoliu m, inner Salt]; 100 µg/mL of PES ([…])).
(§4) 3) Compound test: cells were incubated into a 96-well culture plate, the volume of cytosol was 90 µL, and then 10 µL of the compound at each gradient concentration was added. That is, the highest concentration was 10 µM, which was diluted stepwise by ⅓, and 8 concentration points were set in total; 0.1% DMSO (dimethyl sulfoxide) was contained in the system. The cell plate with uniformly mixed compound was cultured in a cell culture incubator (37° C.; 5% CO2) for 48 h, then 20 µL of MTS reaction solution was added, uniformly mixed and incubated in the cell culture incubator (37° C.; 5% CO2) for 1-4 h. OD values at 490 nm were measured by a microplate reader (VARIOSKAN FLASH, Thermo). Two parallels were set in each group of experiments, with 0.1% (a final concentration) DMSO as a negative control, and a culture medium without cells and compounds as a blank control. The cell growth inhibition rate was calculated by the following formula: […]
(§5) 4) IC50 calculation: The semi-inhibitory concentration of the compounds acting on cells was calculated using GradPad Prism 5 software according to the measured cell growth inhibition rate.

Test [2] has as its target T2, various mutants of kinase EGFR (BaF3 cell lines stably transfected with kinase) (Homo sapiens, UniProt P00533, C797S/L858R/T790M).
T2 construct: expressed in transfected cells; host or cells: BaF3
The conditions noted are these: BaF3 cells stably transfected with EGFR L858R/T790M/C797S, read-out: IC50, growth inhibition, L858R/T790M/C797S. On the procedure:
as §1, §2, §3, §4, §5

In test [3] the target is T3, various mutants of kinase EGFR (BaF3 cell lines stably transfected with kinase) (Homo sapiens, UniProt P00533, L858R).
T3 construct: expressed in transfected cells; host or cells: BaF3
The conditions noted are these: BaF3 cells stably transfected with EGFR L858R, read-out: IC50, growth inhibition, L858R. On the procedure:
as §1, §2, §3, §4, §5

Test [4] addresses T4, various mutants of kinase EGFR (BaF3 cell lines stably transfected with kinase) (Homo sapiens, UniProt P00533, L858R/T790M).
T4 construct: expressed in transfected cells; host or cells: BaF3
As to conditions: BaF3 cells stably transfected with EGFR L858R/T790M, read-out: IC50, growth inhibition, L858R/T790M. How it is done:
as §1, §2, §3, §4, §5

Test [5] deals with T5, various mutants of kinase EGFR (BaF3 cell lines stably transfected with kinase) (Homo sapiens, UniProt P00533, T790M/C797S, form not given).
T5 construct: other: BaF3 cells stably transfected with EGFR Δ19Del/T790M/C797S; MTS, 48; other: BaF3 cell line stably transfected with EGFR Δ19Del/T790M/C7
The conditions noted are these: BaF3 cells stably transfected with EGFR Δ19Del/T790M/C797S, read-out: IC50, growth inhibition, Δ19Del/T790M/C797S. On the procedure:
as §1, §2, §3, §4, §5

The target in test [6] is T6, various mutants of kinase EGFR (BaF3 cell lines stably transfected with kinase) (Homo sapiens, UniProt P00533, T790M, form not given).
T6 construct: other: BaF3 cells stably transfected with EGFR Δ19Del/T790M; MTS, 48 h; other: BaF3 cell line stably transfected with EGFR Δ19Del/T790M; MTS, 48
The conditions noted are these: BaF3 cells stably transfected with EGFR Δ19Del/T790M, read-out: IC50, growth inhibition, Δ19Del/T790M. How it is done:
as §1, §2, §3, §4, §5

T1 sequence (P00533 with tags, fused parts or gaps DEL746-750): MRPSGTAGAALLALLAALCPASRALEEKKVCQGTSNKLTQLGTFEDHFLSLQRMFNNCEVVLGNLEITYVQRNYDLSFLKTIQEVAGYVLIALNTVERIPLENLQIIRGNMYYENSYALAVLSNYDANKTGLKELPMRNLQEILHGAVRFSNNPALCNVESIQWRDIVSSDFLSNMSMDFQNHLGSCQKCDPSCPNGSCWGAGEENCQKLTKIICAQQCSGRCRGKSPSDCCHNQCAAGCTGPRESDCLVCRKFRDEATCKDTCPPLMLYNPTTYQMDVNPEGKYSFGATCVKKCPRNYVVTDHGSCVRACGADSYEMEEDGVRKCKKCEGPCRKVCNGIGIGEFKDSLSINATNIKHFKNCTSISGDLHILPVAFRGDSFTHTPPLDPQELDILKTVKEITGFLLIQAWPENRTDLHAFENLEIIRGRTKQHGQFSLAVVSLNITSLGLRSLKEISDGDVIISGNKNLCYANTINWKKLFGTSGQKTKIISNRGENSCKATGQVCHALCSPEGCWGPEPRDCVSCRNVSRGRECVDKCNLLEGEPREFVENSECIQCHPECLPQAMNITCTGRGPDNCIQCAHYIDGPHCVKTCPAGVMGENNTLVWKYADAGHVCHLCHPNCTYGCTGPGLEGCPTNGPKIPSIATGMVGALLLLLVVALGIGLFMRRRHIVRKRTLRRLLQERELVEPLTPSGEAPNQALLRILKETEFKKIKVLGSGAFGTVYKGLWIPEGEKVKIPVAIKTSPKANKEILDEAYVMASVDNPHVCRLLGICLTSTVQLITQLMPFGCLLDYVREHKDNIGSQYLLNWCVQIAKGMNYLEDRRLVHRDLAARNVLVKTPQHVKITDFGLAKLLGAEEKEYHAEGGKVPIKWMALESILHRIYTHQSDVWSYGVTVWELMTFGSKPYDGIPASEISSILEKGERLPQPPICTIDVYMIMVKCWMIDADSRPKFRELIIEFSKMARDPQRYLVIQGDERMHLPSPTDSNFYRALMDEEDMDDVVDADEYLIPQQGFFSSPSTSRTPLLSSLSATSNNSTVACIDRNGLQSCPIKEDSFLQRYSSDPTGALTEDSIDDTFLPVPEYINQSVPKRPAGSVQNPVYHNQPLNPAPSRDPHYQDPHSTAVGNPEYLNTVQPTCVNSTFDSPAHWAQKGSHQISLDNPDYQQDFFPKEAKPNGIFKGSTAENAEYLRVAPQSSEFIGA
T5 sequence (P00533 with tags, fused parts or gaps DEL746-750/T790M/C797S, form open): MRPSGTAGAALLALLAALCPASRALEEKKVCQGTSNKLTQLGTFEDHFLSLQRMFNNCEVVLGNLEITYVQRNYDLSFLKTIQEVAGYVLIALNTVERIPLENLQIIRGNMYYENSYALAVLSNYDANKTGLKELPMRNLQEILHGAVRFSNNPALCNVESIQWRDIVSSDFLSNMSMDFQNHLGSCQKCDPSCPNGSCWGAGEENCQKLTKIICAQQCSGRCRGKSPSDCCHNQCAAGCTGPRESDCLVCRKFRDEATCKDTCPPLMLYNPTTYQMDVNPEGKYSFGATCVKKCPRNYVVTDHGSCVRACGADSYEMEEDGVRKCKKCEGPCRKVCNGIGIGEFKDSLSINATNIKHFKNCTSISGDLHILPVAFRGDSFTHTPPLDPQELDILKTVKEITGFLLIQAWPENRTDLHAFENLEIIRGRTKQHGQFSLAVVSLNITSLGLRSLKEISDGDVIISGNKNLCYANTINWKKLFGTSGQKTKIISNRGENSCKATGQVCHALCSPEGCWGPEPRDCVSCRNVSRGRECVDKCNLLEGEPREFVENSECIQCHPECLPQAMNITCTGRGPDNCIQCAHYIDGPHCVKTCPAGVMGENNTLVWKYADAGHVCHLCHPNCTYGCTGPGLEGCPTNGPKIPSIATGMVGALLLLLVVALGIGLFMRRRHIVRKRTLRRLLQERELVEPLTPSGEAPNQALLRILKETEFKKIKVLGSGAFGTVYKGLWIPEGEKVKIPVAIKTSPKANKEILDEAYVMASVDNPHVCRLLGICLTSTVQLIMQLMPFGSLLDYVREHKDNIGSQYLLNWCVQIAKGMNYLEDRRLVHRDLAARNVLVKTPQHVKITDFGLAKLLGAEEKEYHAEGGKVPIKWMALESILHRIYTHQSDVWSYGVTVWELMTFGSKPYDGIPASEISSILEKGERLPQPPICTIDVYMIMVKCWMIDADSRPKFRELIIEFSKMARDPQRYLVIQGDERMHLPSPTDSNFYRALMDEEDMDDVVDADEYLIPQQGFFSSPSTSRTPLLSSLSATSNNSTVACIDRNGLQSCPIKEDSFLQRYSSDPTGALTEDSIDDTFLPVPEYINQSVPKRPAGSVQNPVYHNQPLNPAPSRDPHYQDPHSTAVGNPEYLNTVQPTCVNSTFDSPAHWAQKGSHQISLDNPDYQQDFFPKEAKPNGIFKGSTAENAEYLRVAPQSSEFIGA
T2 sequence (P00533 25-1210 T790M/C797S/L858R): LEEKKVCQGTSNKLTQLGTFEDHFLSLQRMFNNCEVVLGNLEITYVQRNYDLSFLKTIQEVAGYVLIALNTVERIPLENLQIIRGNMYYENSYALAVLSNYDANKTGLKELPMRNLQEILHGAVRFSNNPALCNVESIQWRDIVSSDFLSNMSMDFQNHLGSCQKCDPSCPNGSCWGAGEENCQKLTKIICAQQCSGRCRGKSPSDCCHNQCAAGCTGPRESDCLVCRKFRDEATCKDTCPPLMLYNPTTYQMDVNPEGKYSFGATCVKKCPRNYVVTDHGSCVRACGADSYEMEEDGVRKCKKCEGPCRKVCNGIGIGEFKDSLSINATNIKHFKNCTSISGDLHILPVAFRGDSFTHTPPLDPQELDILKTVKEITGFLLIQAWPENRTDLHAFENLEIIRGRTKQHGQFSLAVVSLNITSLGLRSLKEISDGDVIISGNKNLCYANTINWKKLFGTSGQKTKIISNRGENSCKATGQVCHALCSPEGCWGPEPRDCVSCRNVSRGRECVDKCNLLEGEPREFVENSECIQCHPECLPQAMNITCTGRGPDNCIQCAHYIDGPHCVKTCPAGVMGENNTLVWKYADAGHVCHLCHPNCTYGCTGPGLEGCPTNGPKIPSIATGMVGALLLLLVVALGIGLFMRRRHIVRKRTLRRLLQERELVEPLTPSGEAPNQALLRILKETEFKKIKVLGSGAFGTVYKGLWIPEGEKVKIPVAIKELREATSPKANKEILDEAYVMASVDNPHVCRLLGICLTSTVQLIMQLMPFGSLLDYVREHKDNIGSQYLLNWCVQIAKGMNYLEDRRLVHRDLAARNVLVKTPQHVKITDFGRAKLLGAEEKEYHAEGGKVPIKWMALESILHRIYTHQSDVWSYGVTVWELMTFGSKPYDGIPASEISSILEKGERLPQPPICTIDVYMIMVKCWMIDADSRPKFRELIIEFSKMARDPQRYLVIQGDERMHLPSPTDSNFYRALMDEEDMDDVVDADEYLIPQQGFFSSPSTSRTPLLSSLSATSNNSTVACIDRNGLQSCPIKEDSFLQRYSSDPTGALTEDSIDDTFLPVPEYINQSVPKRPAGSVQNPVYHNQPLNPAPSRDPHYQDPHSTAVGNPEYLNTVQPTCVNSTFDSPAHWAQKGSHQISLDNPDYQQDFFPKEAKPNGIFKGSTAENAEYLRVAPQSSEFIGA
T4 sequence (P00533 25-1210 T790M/L858R): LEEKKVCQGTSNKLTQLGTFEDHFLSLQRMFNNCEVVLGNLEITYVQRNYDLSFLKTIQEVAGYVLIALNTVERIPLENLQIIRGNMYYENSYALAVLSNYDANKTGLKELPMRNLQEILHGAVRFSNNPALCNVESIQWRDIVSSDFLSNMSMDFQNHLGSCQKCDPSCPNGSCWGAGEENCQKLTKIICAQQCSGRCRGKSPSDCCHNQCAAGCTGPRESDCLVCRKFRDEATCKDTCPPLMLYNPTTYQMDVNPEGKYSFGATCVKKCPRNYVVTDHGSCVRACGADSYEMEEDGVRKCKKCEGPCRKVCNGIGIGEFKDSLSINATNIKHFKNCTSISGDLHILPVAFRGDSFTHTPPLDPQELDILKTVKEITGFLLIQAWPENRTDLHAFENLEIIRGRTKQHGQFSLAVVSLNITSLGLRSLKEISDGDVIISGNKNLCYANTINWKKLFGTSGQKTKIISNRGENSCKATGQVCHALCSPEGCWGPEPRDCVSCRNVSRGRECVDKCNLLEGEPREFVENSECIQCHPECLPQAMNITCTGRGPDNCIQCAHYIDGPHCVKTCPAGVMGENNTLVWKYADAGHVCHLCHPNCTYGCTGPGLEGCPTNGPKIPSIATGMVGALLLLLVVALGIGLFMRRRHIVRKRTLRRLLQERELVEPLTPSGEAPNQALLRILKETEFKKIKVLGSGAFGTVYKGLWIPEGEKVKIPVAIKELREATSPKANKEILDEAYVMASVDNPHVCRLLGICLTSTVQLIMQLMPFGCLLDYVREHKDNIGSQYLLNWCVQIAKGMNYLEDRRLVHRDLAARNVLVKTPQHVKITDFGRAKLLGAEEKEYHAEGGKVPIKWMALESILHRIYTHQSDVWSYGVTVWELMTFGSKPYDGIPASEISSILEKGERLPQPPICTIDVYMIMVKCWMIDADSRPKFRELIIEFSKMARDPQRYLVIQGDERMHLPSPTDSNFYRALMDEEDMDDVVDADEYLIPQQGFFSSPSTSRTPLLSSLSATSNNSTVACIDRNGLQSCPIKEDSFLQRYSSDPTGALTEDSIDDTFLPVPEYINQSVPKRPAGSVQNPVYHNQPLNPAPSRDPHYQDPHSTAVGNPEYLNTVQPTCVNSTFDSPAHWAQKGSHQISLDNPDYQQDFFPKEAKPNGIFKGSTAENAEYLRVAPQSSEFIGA

As for `CN1CCc2cc(OC(F)(F)F)c(Nc3ncc(Br)c(Nc4ccc5nccnc5c4N(C)S(C)(=O)=O)n3)cc2C1` [Compound I-90], the IC50 fell in the range of 50 to 500 nM in test [1]; 50 to 500 nM in test [2]; 500 to 2500 nM in test [3]; 500 to 2500 nM in test [4]; 500 to 2500 nM in test [5]; 500 to 2500 nM in test [6].

`Cc1cc2c(cc1Nc1ncc(Br)c(Nc3ccc4nccnc4c3N(C)S(C)(=O)=O)n1)CN(C)CC2` [Compound I-92]: the IC50 in test [1] was 50 to 500 nM; in test [2] it was not above 50 nM; in test [3], 50 to 500 nM; in test [4] it was 50 to 500 nM; in test [5] it was 50 to 500 nM; in test [6], 50 to 500 nM.

`CC1CN(C)CCc2ccc(Nc3ncc(Br)c(Nc4ccc5nccnc5c4N(C)S(C)(=O)=O)n3)cc21` (stereo not drawn) [Compound I-93]: the IC50 in test [1], in test [2], in test [3], in test [4], in test [5] and in test [6] was not above 50 nM throughout.

As for `CCN(c1c(Nc2nc(Nc3cc(C)c(N4CCC(N5CCN(C)CC5)CC4)cc3OC)ncc2Br)ccc2nccnc12)S(C)(=O)=O` [Compound I-94], the IC50 in test [1], in test [2], in test [3], in test [4], in test [5] and in test [6] was not above 50 nM in each case.

Regarding `CCc1cc(Nc2ncc(Br)c(Nc3ccc4nccnc4c3N(CC)S(C)(=O)=O)n2)c(OC)cc1N1CCC(N2CCN(C)CC2)CC1` [Compound I-95], the IC50 in test [1], in test [2], in test [3], in test [4], in test [5] and in test [6] was not above 50 nM throughout.

`CCc1cc(Nc2ncc(Br)c(Nc3ccc4nccnc4c3N(CC)S(C)(=O)=O)n2)c(OC(F)(F)F)cc1N1CCC(N2CCN(C)CC2)CC1` [Compound I-96]: the IC50 in test [1] is 50 to 500 nM; in test [2], not above 50 nM; in test [3], 50 to 500 nM; in test [4], 50 to 500 nM; in test [5] it was not above 50 nM; in test [6], 50 to 500 nM.

In the case of `CCc1cc(Nc2ncc(Br)c(Nc3ccc4nccnc4c3N(CC)S(C)(=O)=O)n2)c(OC)cc1N1CCC(N(C)C)CC1` [Compound I-97], the IC50 in test [1], in test [2], in test [3], in test [4], in test [5] and in test [6] was not above 50 nM each time.

As to `CCc1cc(Nc2ncc(Br)c(Nc3ccc4nccnc4c3N(CC)S(C)(=O)=O)n2)c(OC)cc1N1CCC(N(C)C)C1` (stereo not drawn) [Compound I-98], the IC50 in test [1] is 50 to 500 nM; in test [2] it was not above 50 nM; in test [3], not above 50 nM; in test [4], not above 50 nM; in test [5], not above 50 nM; in test [6], not above 50 nM.

On to `CCS(=O)(=O)N(C)c1c(Nc2nc(Nc3cc(C)c(N4CCC(N5CCN(C)CC5)CC4)cc3OC)ncc2Br)ccc2nccnc12` [Compound I-99], for which the IC50 in test [1], in test [2], in test [3], in test [4], in test [5] and in test [6] was not above 50 nM throughout.

`CCc1cc(Nc2ncc(Br)c(Nc3ccc4nccnc4c3N(C)S(=O)(=O)CC)n2)c(OC)cc1N1CCC(N2CCN(C)CC2)CC1` [Compound I-100]: the IC50 in test [1], in test [2], in test [3], in test [4], in test [5] and in test [6] was not above 50 nM each time.

For the compound `CCc1cc(Nc2ncc(Br)c(Nc3ccc4nccnc4c3N(C)S(=O)(=O)CC)n2)c(OC(F)(F)F)cc1N1CCC(N2CCN(C)CC2)CC1` [Compound I-101], the IC50 is 50 to 500 nM in test [1]; not above 50 nM in test [2]; 50 to 500 nM in test [3]; 50 to 500 nM in test [4]; not above 50 nM in test [5]; not above 50 nM in test [6].

Consider `CCc1cc(Nc2ncc(Br)c(Nc3ccc4nccnc4c3N(C)S(=O)(=O)CC)n2)c(OC)cc1N1CCC(N(C)C)CC1` [Compound I-102], for which the IC50 in test [1], in test [2], in test [3], in test [4], in test [5] and in test [6] was not above 50 nM throughout.

On to `CCc1cc(Nc2ncc(Br)c(Nc3ccc4nccnc4c3N(C)S(=O)(=O)C3CC3)n2)c(OC)cc1N1CCC(N2CCN(C)CC2)CC1` [Compound I-105], for which the IC50 in test [1], in test [2], in test [3], in test [4], in test [5] and in test [6] was not above 50 nM each time.

In the case of `CCc1cc(Nc2ncc(Br)c(Nc3ccc4nccnc4c3N(C)S(=O)(=O)C3CC3)n2)c(OC(F)(F)F)cc1N1CCC(N2CCN(C)CC2)CC1` [Compound I-106], the IC50 in test [1] is 50 to 500 nM; in test [2], 50 to 500 nM; in test [3], 50 to 500 nM; in test [4], 50 to 500 nM; in test [5] it was not above 50 nM; in test [6], not above 50 nM.

Regarding `CCc1cc(Nc2ncc(Br)c(Nc3ccc4nccnc4c3N(C)S(=O)(=O)C3CC3)n2)c(OC)cc1N1CCC(N(C)C)C1` (stereo not drawn) [Compound I-108], the IC50 was 50 to 500 nM in test [1]; not above 50 nM in test [2]; 50 to 500 nM in test [3]; not above 50 nM in test [4]; not above 50 nM in test [5]; not above 50 nM in test [6].

With `CCc1cc(Nc2ncc(Cl)c(Nc3ccc4nccnc4c3N(CC)S(C)(=O)=O)n2)c(OC)cc1N1CCC(N2CCN(C)CC2)CC1` [Compound I-110], the IC50 in test [1], in test [2], in test [3], in test [4], in test [5] and in test [6] was not above 50 nM throughout.

Turning to `CCc1cc(Nc2ncc(Cl)c(Nc3ccc4nccnc4c3N(CC)S(C)(=O)=O)n2)c(OC(F)(F)F)cc1N1CCC(N2CCN(C)CC2)CC1` [Compound I-111], the IC50 in test [1] is 50 to 500 nM; in test [2], 50 to 500 nM; in test [3], 50 to 500 nM; in test [4] it was not above 50 nM; in test [5], not above 50 nM; in test [6] it was 50 to 500 nM.

As for `CCc1cc(Nc2ncc(Cl)c(Nc3ccc4nccnc4c3N(CC)S(C)(=O)=O)n2)c(OC)cc1N1CCC(N(C)C)CC1` [Compound I-112], the IC50 in test [1], in test [2], in test [3], in test [4], in test [5] and in test [6] was not above 50 nM throughout.

Take `CCc1cc(Nc2ncc(Cl)c(Nc3ccc4nccnc4c3N(CC)S(C)(=O)=O)n2)c(OC)cc1N1CCC(N(C)C)C1` (stereo not drawn) [Compound I-113]: the IC50 is 50 to 500 nM in test [1]; not above 50 nM in test [2]; not above 50 nM in test [3]; not above 50 nM in test [4]; not above 50 nM in test [5]; not above 50 nM in test [6].
